The source of these data is BindingDB's records for doi:10.1021/jm970389+ (Abbott Laboratories, 1998).

Usually Ki stands for a dissociation constant, usually derived from enzyme kinetics or from competition with a known ligand.

SMILES strings stand for the structures.

This test in a line: Binding potency against Platelet activating factor (PAF) receptor using [3H]C18-PAF as radioligand on rabbit platelet membranes.

The compound `COC(=O)c1cccc2c1c(C(=O)c1ccc(Cn3c(C)nc4cnccc43)cc1)cn2C(N)=O` [1-Carbamoyl-3-[4-(2-methyl-imidazo[4,5-c]pyridin-1-ylmethyl)-benzoyl]-1H-indole-4-carboxylic acid methyl ester] registered a Ki of 1.5 nM.

Consider `CCOC(=O)c1cccc2c1c(C(=O)c1ccc(Cn3c(C)nc4cnccc43)cc1)cn2C(=O)N(C)C` [1-Dimethylcarbamoyl-3-[4-(2-methyl-imidazo[4,5-c]pyridin-1-ylmethyl)-benzoyl]-1H-indole-4-carboxylic acid ethyl ester], for which the Ki is 5.2 nM.

Consider `Cc1nc2cnccc2n1Cc1ccc(C(=O)c2c[nH]c3cc(-c4ccc(F)cc4)ccc23)cc1` [[6-(4-Fluoro-phenyl)-1H-indol-3-yl]-[4-(2-methyl-imidazo[4,5-c]pyridin-1-ylmethyl)-phenyl]-methanone], for which the affinity corresponds to a Ki of 75 nM.

The compound `Cc1nc2cnccc2n1Cc1ccc(C(=O)c2cn(C(=O)N(C)C)c3cccc(OC(=O)N(C)C)c23)cc1F` [Dimethyl-carbamic acid 1-dimethylcarbamoyl-3-[3-fluoro-4-(2-methyl-imidazo[4,5-c]pyridin-1-ylmethyl)-benzoyl]-1H-indol-4-yl ester] yielded a Ki of 31 nM.

`COC(=O)c1cccc2c1c(C(=O)c1ccc(Cn3ccc4nc(C)nc-4c3)cc1)cn2C(=O)N(C)C` [1-Dimethylcarbamoyl-3-[4-(2-methyl-imidazo[4,5-c]pyridin-5-ylmethyl)-benzoyl]-1H-indole-4-carboxylic acid methyl ester] showed a Ki of more than 1000 nM.

Take `C#Cc1cccc2[nH]cc(C(=O)c3ccc(Cn4c(C)nc5cnccc54)c(F)c3)c12` [(4-Ethynyl-1H-indol-3-yl)-[3-fluoro-4-(2-methyl-imidazo[4,5-c]pyridin-1-ylmethyl)-phenyl]-methanone]: the Ki is 2.2 nM.

In the case of `C#Cc1cccc2c1c(C(=O)c1ccc(Cn3c(C)nc4cnccc43)cc1)cn2C(=O)N(C)C` [4-Ethynyl-3-[4-(2-methyl-imidazo[4,5-c]pyridin-1-ylmethyl)-benzoyl]-indole-1-carboxylic acid dimethylamide], the Ki worked out at 1.3 nM.

`Cc1nc2cnccc2n1-c1ccc(C(=O)c2cn(C(=O)N(C)C)c3cc(-c4ccc(F)cc4)ccc23)cc1` [6-(4-Fluoro-phenyl)-3-[4-(2-methyl-imidazo[4,5-c]pyridin-1-yl)-benzoyl]-indole-1-carboxylic acid dimethylamide] returned an inhibition constant (Ki) of 260 nM.

`COC(=O)c1cccc2c1c(C(=O)c1ccc(Cn3c(C)nc4cnccc43)cc1)cn2CC(=O)C(C)(C)C` [1-(3,3-Dimethyl-2-oxo-butyl)-3-[4-(2-methyl-imidazo[4,5-c]pyridin-1-ylmethyl)-benzoyl]-1H-indole-4-carboxylic acid methyl ester] came in with a Ki of 0.67 nM. This Ki is about 390-fold lower than that of the compound before.

In turn, `COC(=O)c1cccc2c1c(C(=O)c1ccc(Cn3c(C)nc4cnccc43)cc1)cn2CC(=O)N(C)C` [1-Dimethylcarbamoylmethyl-3-[4-(2-methyl-imidazo[4,5-c]pyridin-1-ylmethyl)-benzoyl]-1H-indole-4-carboxylic acid methyl ester] showed a Ki of 4.4 nM.

For the compound `COC(=O)c1cccc2c1c(C(=O)c1ccc(Cn3c(C)nc4ncccc43)cc1)cn2C(=O)N(C)C` [1-Dimethylcarbamoyl-3-[4-(2-methyl-imidazo[4,5-b]pyridin-1-ylmethyl)-benzoyl]-1H-indole-4-carboxylic acid methyl ester], the Ki turned out to be 2.9 nM. This Ki is about 1.5-fold lower than that of the compound before.

With `COC(=O)c1cc(-c2ccc(F)cc2)cc2c1c(C(=O)c1ccc(Cn3c(C)nc4cnccc43)cc1)cn2C(=O)N(C)C` [1-Dimethylcarbamoyl-6-(4-fluoro-phenyl)-3-[4-(2-methyl-imidazo[4,5-c]pyridin-1-ylmethyl)-benzoyl]-1H-indole-4-carboxylic acid methyl ester], affinity was put at a Ki of 0.15 nM.

Turning to `Cc1nc2cnccc2n1Cc1ccc(C(=O)c2cn(C(=O)N(C)C)c3ccc(-c4ccc(F)cc4)cc23)cc1` [5-(4-Fluoro-phenyl)-3-[4-(2-methyl-imidazo[4,5-c]pyridin-1-ylmethyl)-benzoyl]-indole-1-carboxylic acid dimethylamide], the Ki was found to be 190 nM.

Compound `Cc1nc2cnccc2n1CC(=O)c1cn(C(=O)N(C)C)c2cc(-c3ccc(F)cc3)ccc12` [6-(4-Fluoro-phenyl)-3-[2-(2-methyl-imidazo[4,5-c]pyridin-1-yl)-acetyl]-indole-1-carboxylic acid dimethylamide] registered a Ki of more than 1000 nM.

As to `COC(=O)c1cccc2c1c(C(=O)c1ccc(Cn3c(C)nc4c(C)nc(C)cc43)cc1)cn2C(=O)N(C)C` [1-Dimethylcarbamoyl-3-[4-(2,4,6-trimethyl-imidazo[4,5-c]pyridin-1-ylmethyl)-benzoyl]-1H-indole-4-carboxylic acid methyl ester], the Ki was found to be 120 nM. This lies in the sub-micromolar range.

With `COC(=O)c1cccc2c1c(C(=O)CCCCCn1c(C)nc3cnccc31)cn2C(=O)N(C)C` [1-Dimethylcarbamoyl-3-[6-(2-methyl-imidazo[4,5-c]pyridin-1-yl)-hexanoyl]-1H-indole-4-carboxylic acid methyl ester], the affinity, expressed as Ki, was 6.1 nM.

As to `Cc1cccc2c1c(C(=O)c1ccc(Cn3c(C)nc4cnccc43)cc1)cn2C(=O)N(C)C` [4-Methyl-3-[4-(2-methyl-imidazo[4,5-c]pyridin-1-ylmethyl)-benzoyl]-indole-1-carboxylic acid dimethylamide], the Ki was determined as 0.82 nM.

Take `Cc1nc2cnccc2n1Cc1ccc(C(=O)c2cn(C(=O)N(C)C)c3cccc(Br)c23)cc1` [4-Bromo-3-[4-(2-methyl-imidazo[4,5-c]pyridin-1-ylmethyl)-benzoyl]-indole-1-carboxylic acid dimethylamide]: affinity was put at a Ki of 11 nM.

Take `Cc1nc2cnccc2n1CCCCCC(=O)c1cn(C(=O)N(C)C)c2cccc(-c3ccc(F)cc3)c12` [4-(4-Fluoro-phenyl)-3-[6-(2-methyl-imidazo[4,5-c]pyridin-1-yl)-hexanoyl]-indole-1-carboxylic acid dimethylamide]: the Ki amounted to 3.2 nM.

`Cc1nc2cnccc2n1CN1CCN(S(=O)(=O)c2cn(C(=O)N(C)C)c3cc(-c4ccc(F)cc4)ccc23)CC1` [6-(4-Fluoro-phenyl)-3-[4-(2-methyl-imidazo[4,5-c]pyridin-1-ylmethyl)-piperazine-1-sulfonyl]-indole-1-carboxylic acid dimethylamide] showed a Ki of 1.2 nM. Compared with the last compound, the Ki is about 2.7-fold lower.

For the compound `COc1cccc2c1c(C(=O)c1ccc(Cn3c(C)nc4cnccc43)cc1)cn2C(=O)N(C)C` [4-Methoxy-3-[4-(2-methyl-imidazo[4,5-c]pyridin-1-ylmethyl)-benzoyl]-indole-1-carboxylic acid dimethylamide], the Ki came to 2 nM.

The compound `COC(=O)c1cccc2c1c(C(=O)C1CCC(Cn3c(C)nc4cnccc43)CC1)cn2C(=O)N(C)C` (stereo not drawn) [1-Dimethylcarbamoyl-3-[4-(2-methyl-imidazo[4,5-c]pyridin-1-ylmethyl)-cyclohexanecarbonyl]-1H-indole-4-carboxylic acid methyl ester] yielded a Ki of 2.4 nM.

On to `CCOCCn1cc(C(=O)c2ccc(Cn3c(C)nc4cnccc43)cc2)c2c(C(=O)OC)cccc21` [1-(2-Ethoxy-ethyl)-3-[4-(2-methyl-imidazo[4,5-c]pyridin-1-ylmethyl)-benzoyl]-1H-indole-4-carboxylic acid methyl ester], for which the affinity corresponds to a Ki of 1.1 nM.
